According to US20170073337A1, “DIHYDROTHIAZINE AND DIHYDROOXAZINE DERIVATIVES HAVING BACE1 INHIBITORY ACTIVITY” (Shionogi & Co., Ltd., priority 2014, published 2017):
In brackets after ≈: the same amount, converted by molar mass. Like-named read-outs stand apart in the source and are kept apart here.

Key:
CYP2C19 = target: T1, CYP2C19 (Homo sapiens, UniProt P33261); test: CYP inhibition test (CYP2C19); type: in vitro ADME; settings: pooled human liver microsomes; mephenytoin 4′-hydroxylation
T1 construct: The commercially available pooled human liver microsomes are used as an enzyme resource; from tissue; host or cells: pooled human liver microsomes
Text: (§1) The CYP inhibition test is a test to assess the inhibitory effect of a compound of the present invention towards typical substrate metabolism reactions on CYP enzymes in human liver microsomes. The marker reactions on human main five CYP enzymes (CYP1A2, 2C9, 2C19, 2D6, and 3A4) are used as follows: 7-ethoxyresorufin O-deethylation (CYP1A2), tolbutamide methyl-hydroxylation (CYP2C9), mephenytoin 4′-hydroxylation (CYP2C19), dextromethorphan O-demethylation (CYP2D6), and terfenadine hydroxylation (CYP3A4). The commercially available pooled human liver microsomes are used as an enzyme resource.
(§2) The reaction conditions were as follows: substrate, 0.5 μmol/L ethoxyresorufin (CYP1A2), 100 μmol/L tolbutamide (CYP2C9), 50 μmol/L, S-mephenytoin (CYP2C19), 5 μmol/L dextromethorphan (CYP2D6), 1 μmol/L terfenadine (CYP3A4): reaction time, 15 minutes: reaction temperature, 37° C.; enzyme, pooled human liver microsomes 0.2 mg protein/mL; concentrations of the compound of the present invention, 1, 5, 10, 20 μmol/L (four points).
(§3) Five kinds of substrates, human liver microsomes, and a compound solution of the present invention in […] Hepes buffer were added to a 96-well plate at the composition as described above as a reaction solution. NADPH as a cofactor was added to this 96-well plate in order to initiate metabolism reactions. After the incubation at 37° C.for […], a methanol/acetonitrile=1/1 (v/v) solution was added to stop the reaction. After the centrifugation at 3000 rpm for 15 minutes, resorufin (CYP1A2 metabolite) in the supernatant was quantified by a fluorescent plate reader, and hydroxytolbutamide (CYP2C9 metabolite), 4′-hydroxymephenytoin (CYP2C19 metabolite), dextrorphan (CYP2D6 metabolite), and terfenadine alcohol metabolite (CYP3A4 metabolite) in the supernatant were quantified by LC/MS/MS.
(§4) The sample adding DMSO to a reaction system instead of compound of the present invention solution was adopted as a control (100%) because DMSO was used as a solvent to dissolve a compound of the present invention. Remaining activity (%) was calculated at each concentration of a compound of the present invention, and IC50 value was calculated by reverse presumption by a logistic model using a concentration and an inhibition rate.

CYP1A2 = target: T2, CYP1A2 (Homo sapiens, UniProt P05177); test: CYP inhibition test (CYP1A2); type: in vitro ADME; settings: pooled human liver microsomes; 7-ethoxyresorufin O-deethylation
T2 construct: The commercially available pooled human liver microsomes are used as an enzyme resource; from tissue; host or cells: pooled human liver microsomes
T2 sequence (P05177 1-516): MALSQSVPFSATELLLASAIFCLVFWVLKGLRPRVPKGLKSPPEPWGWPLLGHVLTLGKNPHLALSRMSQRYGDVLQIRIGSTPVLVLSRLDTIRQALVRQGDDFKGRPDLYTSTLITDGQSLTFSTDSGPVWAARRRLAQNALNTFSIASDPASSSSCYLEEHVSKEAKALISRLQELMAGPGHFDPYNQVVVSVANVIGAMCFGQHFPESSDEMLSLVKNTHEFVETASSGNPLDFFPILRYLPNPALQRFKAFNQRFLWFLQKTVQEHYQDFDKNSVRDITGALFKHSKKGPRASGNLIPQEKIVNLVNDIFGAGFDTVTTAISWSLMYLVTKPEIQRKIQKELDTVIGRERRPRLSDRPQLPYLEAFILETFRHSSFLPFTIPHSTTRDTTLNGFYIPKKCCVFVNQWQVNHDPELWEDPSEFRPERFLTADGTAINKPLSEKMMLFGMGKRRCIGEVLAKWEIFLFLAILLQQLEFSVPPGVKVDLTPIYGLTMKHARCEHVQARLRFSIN
Text: as §1, §2, §3, §4

Recombinant human BACE1 = target: T3, Recombinant human BACE1 (Homo sapiens, UniProt P56817); test: Assay of BACE1 inhibitory activity: 384-well; type: biochemical; settings: Assay format 384-well
T3 construct: purchased R&D Systems
Description: 5 μL of substrate peptide solution (Biotin-XSEVNLDAEFRHDSGC-Eu: X=ε-amino-n-capronic acid, Eu=Europium eryplate) was added to each well of 384-well plate (a black plate: Corning), and after addition of 0.1 μl of the compound of the present invention (DMSO solution) and 5 μl of Recombinant human BACE1 (R&D Systems), the reaction mixture was incubated at 25° C. for 2 hours. The substrate peptide was synthesized by reacting Cryptate TBPCOOH mono SMP (CIS bio international) with Biotin-XSEVNLDAEFRHDSGC (Peptide Institute, Inc.).
After the incubation for reaction, 10 μl of 8.0 μg/ml Streptavidin-XL665 (CIS bio International) dissolved in phosphate buffer (150 mmol/L K2HPO4-KH2PO4, pH 7.0, 0.008% Triton X-100, 0.8 mol/L KF) was added to each well and left stand at 25° C. for 30 minutes.

Solubility test = type: physicochemical; settings: for solubility kinetic at 1 h: kinetic from dmso stock; for solubility kinetic at 16 h: solubility in JP 2nd fluid B, 1% DMSO, *2: shaken for 1 hour at room temperature
Description: A 10 mmol/L solution of the compound was prepared with DMSO, and 2 μL of the compound of the present invention solution was added, respectively, to 198 μL of JP 1st fluid (water was added to 2.0 g of sodium chloride and 7.0 ml, of hydrochloric acid to reach 1000 mL) and JP 2nd fluid (See Table 4). The mixture was left standing for 16 hours at 25° C. or shaken for 1 hour at ruom temperature, and the mixture was vacuum-filtered. The […] was ten or one hundred-fold diluted with metbanol/water=1/1 (v/v) or MeCN/MeOH/H2O(=1/1/2), and the compound concent ration in the filtrate was measured with LC/MS or solid phase extraction (SPE)/MS by the absolute calibration method.

[1] = target: T4, P-gp (MDR1 expressing LLC-PK1 cells) (Homo sapiens, UniProt P08183); test: P-gp substrate test; type: in vitro ADME; settings: net flux = Efflux Ratio in MDR1 expressing cells / Efflux Ratio in parent LLC-PK1 cells
T4 construct: host or cells: LLC-PK1
Description: • 1. Cell line: • a. MDR/LLC-PK1 (Becton Dickinson) • b. LLC-PK1 (Becton Dickinson) • 2. Reference substrates: • a Digoxin (2 μM)
1. […] After incubation for designed time at 37° C., an aliquot (50 μL) of transport buffer in the donor and receiver side were collected. Assay was performed by duplicate or triplicate. 3. Reference substrate and the present invention in the aliquot was quantified by LC/MS/MS.
Pc(cm/sec)−Permeated amount (pmol)/area of cell membrane (cm2)/initial concentration (nM)/incubation time (sec)
The efflux ratio was calculated using the following equation:
Efflux Ratio=Basolateral-to-Apical Pe/Apical-to-Basolateral Pe
The net flux was calculated using the following equation
Net flux=Efflux Ratio in MDK1 expressing cells/Efflux Ratio in parent cells

[2] = tested on: Aβ production in neuroblastoma SH-SY5Y cells (SH/APPwt); test: β-amyloid (Aβ) production inhibitory effect in cell: 384-well; type: cell-based; settings: Homo sapiens, Assay format 384-well
Description: Neuroblastoma SH-SY5Y cells (SH/APPwt) with human wild-type β-APT excessively expressed therein were prepared at 4×10^5 cells/mL, and 50 μl portions thereof were inoculated into each well of a 384-well culture plate (Corning) added 0.5 μl of the test compound of the present invention (DMSO solution). The final DMSO concentration was 1%, and the amount of the cell culture was 50 μl. After the incubation was performed for 21 hours from the cell seeding, 5 μl of the culture supernatant was collected from each fraction. The amount of the Aβ in each fraction was measured.
The Aβ amount was measured as follows. 5 μl of a homogeneous time resolved fluoresrenee (HTRF) measurement reagent (Amyloid β1-40 peptide; CIS bio international) and 5 μl of the culture supernatant were put into a 384′well plate (a black plate: Corning) and mixed with each other, and then left standing overnight at 4° C. while the light was shielded. Then, the fluorescence intensity (620 nm and 665 nm) was measured with EnViston (Perkin Elmer life sciences).

CYP2C9 = target: T5, CYP2C9 (Homo sapiens, UniProt P11712); test: CYP inhibition test (CYP2C9); type: in vitro ADME; settings: pooled human liver microsomes; tolbutamide methyl-hydroxylation
T5 construct: The commercially available pooled human liver microsomes are used as an enzyme resource; from tissue; host or cells: pooled human liver microsomes
Text: as §1, §2, §3, §4

CYP3A4 = target: T6, CYP3A4 (Homo sapiens, UniProt P08684); test: CYP inhibition test (CYP3A4); type: in vitro ADME; settings: pooled human liver microsomes; terfenadine hydroxylation
T6 construct: The commercially available pooled human liver microsomes are used as an enzyme resource; from tissue; host or cells: pooled human liver microsomes
Text: as §1, §2, §3, §4

CYP2D6 = target: T7, CYP2D6 (Homo sapiens, UniProt P10635); test: CYP inhibition test (CYP2D6); type: in vitro ADME; settings: pooled human liver microsomes; dextromethorphan O-demethylation
T7 construct: The commercially available pooled human liver microsomes are used as an enzyme resource; from tissue; host or cells: pooled human liver microsomes
Text: as §1, §2, §3, §4

[3] = target: T8, human ether-a-go-go related gene (hERG) channel (Homo sapiens, UniProt Q12809); test: hERG test; type: cell-based; settings: % inhibition of IKr tail peak current at 3 uM; CHO cells expressing hERG
T8 construct: expressed in transfected cells; host or cells: CHO cells
Text: For the purpose of assessing risk of an electrocardiogram QT interval prolongation, effects on delayed rectifier K+ current (IKr), which plays an important role in the ventricular repolarization process of the compound of the present invention, was studied using CHO cells expressing human ether-a-go-go related gene (hERG) channel.
A cell was retained at a membrane potential of […] by whole cell patch clamp method using an automated patch clamp system (QPatch:Sophion Bioscience A/S). After application of leak potential at −50 mV, IKr induced by depolarization pulse stimulation at +20 mV for 2 seconds and, further, repolarization pulse stimulation at −50 mV for 2 seconds was recorded.

Metabolic stability test = type: in vitro ADME; settings: human liver microsomes, 37° C., 30 minutes, NADPH
Description: Using a commercially available pooled human liver microsomes, a compound of the present invention was reacted for a constant time, a remaining rate was calculated by comparing a reacted sample and an unreacted sample, thereby, a degree of metabolism in liver was assessed.
A reaction was performed (oxidative reaction) at 37° C. for 0 minute or 30 minutes in the presence of 1 mmol/L NADPH in 0.2 mL of a buffer (60 mmol/L Tris-HCl pH 7.4, 150 mmol/L potassium chloride, 10 mmol/L magnesium chloride) containing 0.5 mg protein/mL of human liver microsomes. After the reaction, 50 μL of the reaction solution was added to 100 μL of a methanol/acetonltrile=1/1 (v/v), mixed and centrifuged at 3000 rpm for 15 minutes. The compound of the present invention in the supernatant was quantified by LC/MS/MS or solid phase extraction (SPE)/MS, and a remaining amount of the compound of the present invention after the reaction area calculated, letting a compound amount at 0 minute reaction time to be 100%.

[4] = JP 1st fluid, pH 1.2, simulated gastric fluid, read-out: JP1

T7 sequence (P10635 whole entry): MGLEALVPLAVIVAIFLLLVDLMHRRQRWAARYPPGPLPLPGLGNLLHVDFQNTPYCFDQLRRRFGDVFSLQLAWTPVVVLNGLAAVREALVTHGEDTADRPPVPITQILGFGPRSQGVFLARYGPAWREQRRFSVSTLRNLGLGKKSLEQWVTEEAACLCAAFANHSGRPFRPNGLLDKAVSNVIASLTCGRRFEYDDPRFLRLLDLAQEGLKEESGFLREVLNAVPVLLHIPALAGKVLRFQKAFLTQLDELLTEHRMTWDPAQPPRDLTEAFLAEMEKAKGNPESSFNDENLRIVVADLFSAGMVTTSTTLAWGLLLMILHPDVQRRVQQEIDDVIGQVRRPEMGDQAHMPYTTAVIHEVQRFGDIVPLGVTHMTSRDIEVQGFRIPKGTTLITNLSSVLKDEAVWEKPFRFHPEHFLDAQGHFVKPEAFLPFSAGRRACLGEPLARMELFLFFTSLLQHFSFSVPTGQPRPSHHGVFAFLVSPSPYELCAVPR
T5 sequence (P11712 whole entry): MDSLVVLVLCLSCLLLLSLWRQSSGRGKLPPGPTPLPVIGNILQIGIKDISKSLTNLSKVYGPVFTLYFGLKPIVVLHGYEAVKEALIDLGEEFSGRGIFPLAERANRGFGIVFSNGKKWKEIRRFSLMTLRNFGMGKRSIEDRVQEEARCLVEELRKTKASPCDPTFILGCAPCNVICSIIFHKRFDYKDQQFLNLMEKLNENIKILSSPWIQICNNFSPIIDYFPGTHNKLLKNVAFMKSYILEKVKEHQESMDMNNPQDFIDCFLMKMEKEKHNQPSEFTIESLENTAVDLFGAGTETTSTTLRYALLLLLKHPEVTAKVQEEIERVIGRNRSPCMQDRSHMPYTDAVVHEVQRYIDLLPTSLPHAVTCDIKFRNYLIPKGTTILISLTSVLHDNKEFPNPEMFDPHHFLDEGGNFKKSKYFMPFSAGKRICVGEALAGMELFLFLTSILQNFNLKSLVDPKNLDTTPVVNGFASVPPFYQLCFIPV
T6 sequence (P08684 whole entry): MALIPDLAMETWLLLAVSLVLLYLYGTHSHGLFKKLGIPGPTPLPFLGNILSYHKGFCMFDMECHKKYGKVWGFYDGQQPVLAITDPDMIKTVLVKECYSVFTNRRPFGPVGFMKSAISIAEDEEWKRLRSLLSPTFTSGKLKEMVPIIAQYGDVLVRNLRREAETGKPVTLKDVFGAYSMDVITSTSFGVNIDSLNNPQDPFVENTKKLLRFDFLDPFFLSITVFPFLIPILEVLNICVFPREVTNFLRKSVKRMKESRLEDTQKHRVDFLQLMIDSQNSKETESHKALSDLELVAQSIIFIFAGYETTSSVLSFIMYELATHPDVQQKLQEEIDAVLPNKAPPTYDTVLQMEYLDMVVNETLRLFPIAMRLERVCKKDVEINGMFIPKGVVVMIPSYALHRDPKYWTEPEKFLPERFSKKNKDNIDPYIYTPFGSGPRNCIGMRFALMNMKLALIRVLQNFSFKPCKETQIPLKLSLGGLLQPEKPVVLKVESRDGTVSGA
T3 sequence (P56817 46-501): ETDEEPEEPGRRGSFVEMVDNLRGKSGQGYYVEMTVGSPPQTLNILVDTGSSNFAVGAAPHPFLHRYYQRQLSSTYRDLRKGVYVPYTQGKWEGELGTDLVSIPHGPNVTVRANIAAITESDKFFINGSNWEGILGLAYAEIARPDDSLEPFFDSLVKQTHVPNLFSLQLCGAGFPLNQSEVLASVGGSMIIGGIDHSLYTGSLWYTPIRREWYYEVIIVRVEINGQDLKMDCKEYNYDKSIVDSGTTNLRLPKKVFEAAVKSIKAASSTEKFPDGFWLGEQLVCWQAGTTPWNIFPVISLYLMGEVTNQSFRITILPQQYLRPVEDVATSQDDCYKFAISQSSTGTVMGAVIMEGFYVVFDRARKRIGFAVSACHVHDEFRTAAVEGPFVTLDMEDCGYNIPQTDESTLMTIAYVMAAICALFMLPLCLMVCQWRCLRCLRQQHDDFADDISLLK
T1 sequence (P33261 whole entry): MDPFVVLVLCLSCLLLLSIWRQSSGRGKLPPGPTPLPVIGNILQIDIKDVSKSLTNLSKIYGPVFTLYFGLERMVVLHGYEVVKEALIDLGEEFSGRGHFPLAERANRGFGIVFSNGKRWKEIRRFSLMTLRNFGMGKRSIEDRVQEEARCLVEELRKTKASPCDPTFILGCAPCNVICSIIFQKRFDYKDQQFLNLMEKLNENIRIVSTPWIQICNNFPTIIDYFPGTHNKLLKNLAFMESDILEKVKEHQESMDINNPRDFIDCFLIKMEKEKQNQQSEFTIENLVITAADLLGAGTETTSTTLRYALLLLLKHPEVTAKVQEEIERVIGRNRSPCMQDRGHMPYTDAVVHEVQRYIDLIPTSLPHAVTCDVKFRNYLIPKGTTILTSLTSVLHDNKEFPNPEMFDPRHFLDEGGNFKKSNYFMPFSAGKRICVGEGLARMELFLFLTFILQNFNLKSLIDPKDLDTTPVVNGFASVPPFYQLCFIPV
T4 sequence (P08183 whole entry): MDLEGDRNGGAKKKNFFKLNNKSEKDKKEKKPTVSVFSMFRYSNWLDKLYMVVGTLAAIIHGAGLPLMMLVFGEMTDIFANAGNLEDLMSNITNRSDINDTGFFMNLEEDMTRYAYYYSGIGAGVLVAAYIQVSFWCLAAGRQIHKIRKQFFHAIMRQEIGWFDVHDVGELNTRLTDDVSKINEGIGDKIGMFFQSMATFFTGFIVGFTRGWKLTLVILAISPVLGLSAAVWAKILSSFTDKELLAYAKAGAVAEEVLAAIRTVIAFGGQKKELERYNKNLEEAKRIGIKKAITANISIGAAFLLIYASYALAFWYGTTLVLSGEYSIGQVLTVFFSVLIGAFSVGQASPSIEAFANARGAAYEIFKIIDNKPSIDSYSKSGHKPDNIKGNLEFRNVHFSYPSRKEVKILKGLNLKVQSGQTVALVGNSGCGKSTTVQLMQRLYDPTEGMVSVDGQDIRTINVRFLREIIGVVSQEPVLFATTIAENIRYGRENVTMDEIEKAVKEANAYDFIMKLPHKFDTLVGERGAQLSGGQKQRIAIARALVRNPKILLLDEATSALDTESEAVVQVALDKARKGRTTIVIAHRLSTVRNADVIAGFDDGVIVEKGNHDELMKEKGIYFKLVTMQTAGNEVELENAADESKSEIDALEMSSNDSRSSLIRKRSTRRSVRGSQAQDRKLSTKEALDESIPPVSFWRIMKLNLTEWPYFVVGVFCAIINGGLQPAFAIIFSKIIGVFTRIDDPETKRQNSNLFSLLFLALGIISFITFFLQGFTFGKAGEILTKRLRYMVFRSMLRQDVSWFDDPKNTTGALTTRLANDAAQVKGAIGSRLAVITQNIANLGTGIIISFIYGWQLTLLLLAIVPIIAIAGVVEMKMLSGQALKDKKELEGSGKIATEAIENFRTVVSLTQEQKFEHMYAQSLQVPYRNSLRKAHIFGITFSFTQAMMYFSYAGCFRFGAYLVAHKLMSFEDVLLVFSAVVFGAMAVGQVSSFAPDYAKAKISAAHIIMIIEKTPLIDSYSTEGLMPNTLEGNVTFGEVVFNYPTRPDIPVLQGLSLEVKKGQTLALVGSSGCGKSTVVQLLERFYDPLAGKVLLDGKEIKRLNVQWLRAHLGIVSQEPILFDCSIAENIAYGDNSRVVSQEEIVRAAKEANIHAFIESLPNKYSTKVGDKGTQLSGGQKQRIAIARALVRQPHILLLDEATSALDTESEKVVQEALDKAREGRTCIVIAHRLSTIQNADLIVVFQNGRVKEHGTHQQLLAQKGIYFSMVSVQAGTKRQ
T8 sequence (Q12809 whole entry): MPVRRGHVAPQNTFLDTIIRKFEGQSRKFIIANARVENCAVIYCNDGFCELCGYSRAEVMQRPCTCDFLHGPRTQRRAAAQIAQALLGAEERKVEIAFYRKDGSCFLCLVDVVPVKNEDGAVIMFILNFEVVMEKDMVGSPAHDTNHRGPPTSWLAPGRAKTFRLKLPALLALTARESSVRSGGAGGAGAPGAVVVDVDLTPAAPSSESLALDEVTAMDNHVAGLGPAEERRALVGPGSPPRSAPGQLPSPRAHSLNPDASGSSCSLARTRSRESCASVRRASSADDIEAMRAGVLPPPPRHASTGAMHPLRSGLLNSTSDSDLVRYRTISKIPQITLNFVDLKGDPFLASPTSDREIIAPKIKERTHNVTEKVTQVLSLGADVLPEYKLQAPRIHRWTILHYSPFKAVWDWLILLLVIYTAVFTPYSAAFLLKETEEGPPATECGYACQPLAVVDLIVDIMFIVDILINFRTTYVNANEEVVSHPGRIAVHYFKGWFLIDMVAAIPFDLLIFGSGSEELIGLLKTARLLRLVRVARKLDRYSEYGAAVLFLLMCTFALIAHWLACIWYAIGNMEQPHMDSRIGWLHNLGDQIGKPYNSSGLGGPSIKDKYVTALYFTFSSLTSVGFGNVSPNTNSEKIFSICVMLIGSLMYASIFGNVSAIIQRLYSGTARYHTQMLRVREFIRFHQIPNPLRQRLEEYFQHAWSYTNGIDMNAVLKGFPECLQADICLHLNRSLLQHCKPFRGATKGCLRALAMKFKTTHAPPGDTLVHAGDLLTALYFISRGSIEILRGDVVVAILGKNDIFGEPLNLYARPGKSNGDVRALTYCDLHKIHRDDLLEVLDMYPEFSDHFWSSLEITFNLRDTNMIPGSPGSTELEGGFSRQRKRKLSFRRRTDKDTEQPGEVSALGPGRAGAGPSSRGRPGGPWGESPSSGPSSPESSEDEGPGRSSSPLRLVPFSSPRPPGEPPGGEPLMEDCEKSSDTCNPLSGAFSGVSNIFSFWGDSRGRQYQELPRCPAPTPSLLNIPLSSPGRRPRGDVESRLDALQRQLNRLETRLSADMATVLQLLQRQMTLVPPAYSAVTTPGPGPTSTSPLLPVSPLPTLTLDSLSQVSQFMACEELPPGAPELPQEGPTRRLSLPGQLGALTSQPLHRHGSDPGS

IC50 (CYP2C19) [nM] | IC50 (CYP1A2) [nM] | IC50 (Recombinant human BACE1) [nM] | solubility kinetic at 1 h (Solubility test; [4]) [µM] | solubility kinetic at 16 h (Solubility test; read-out: JP2_μM) [µM] | ER ratio (Cell: MDR1/LLC-PK1) [1] | IC50 [2] [nM] | IC50 (CYP2C9) [nM] | IC50 (CYP3A4) [nM] | IC50 (CYP2D6) [nM] | remaining % (Metabolic stability test) [%] | solubility kinetic at 1 h (Solubility test; JP 2nd fluid B, pH 6.8, aqueous buffer, read-out: JP2_μM) [µM] | Structure (SMILES) | hERG_3 uM_% [3] [%]
≥ 20000 | ≥ 20000 | 6.62 | > 50 | >50 | 1.4 | 0.29 | ≥ 20000 |  |  |  |  | Cc1cc(C#N)cnc1C(=O)Nc1ccc(F)c([C@@]2(C)N=C(N)SCC23CC(F)(F)C3)c1 [Compound I-60] | 
≥ 20000 | ≥ 20000 | 16.1 | > 50 | >50 | 0.6 | 0.68 | ≥ 20000 | ≥ 10000 |  |  |  | COc1ccc(C(=O)Nc2ccc(F)c([C@@]3(C)N=C(N)SCC34CC(F)(F)C4)c2)nc1 [Compound I-57] | 
≥ 20000 | ≥ 20000 | 7.35 | > 50 | >50 |  | 6.7 | ≥ 20000 | ≥ 10000 | ≥ 10000 |  |  | COCC(F)(F)[C@H]1OC(N)=N[C@](C)(c2cc(NC(=O)c3ccc(C#N)cn3)ccc2F)[C@H]1F [Compound I-78] | 39.6
≥ 20000 | ≥ 20000 | 23.4 | > 50 | >50.0 |  | 1.6 | ≥ 20000 | ≥ 20000 | ≥ 20000 | 78.1 |  | C[C@H]1SC(N)=N[C@](C)(c2cccc(NC(=O)c3ccc(C#N)cn3)c2)[C@H]1F [Compound I-102] | 
 |  | 13 | > 50 |  | 1.9 | 7.2 |  |  |  | 91 | 38.6 (≈ 18.3 µg/mL) | C[C@H]1SC(N)=N[C@](C)(c2cc(NC(=O)c3ccc(OCC(F)(F)F)cn3)ccc2F)[C@H]1F [Compound I-54] | 37.7
≥ 20000 | ≥ 20000 | 41.5 | > 50 | >50.0 |  | 5.1 | ≥ 10000 | ≥ 20000 | ≥ 20000 | 80.5 |  | [2H]C([2H])([2H])Oc1cnc(C(=O)Nc2cccc([C@@]3(C)N=C(N)S[C@H](C)[C@@H]3F)c2)cn1 [Compound I-114] | 
